According to patent US5376371A, “Compositions for treating fat deposits in humans” (Indena S.p.A., priority 1989, dated 1994):

Columns and labels:
phosphodiesterase [1] = assay: Phosphodiesterase inhibition, cyclic AMP substrate; format: biochemical; settings: 1 μM substrate; read-out: I50 Cyclic AMP
Experimental: (§1) The determination of the phosphodiesterase activity was carried out according to the method of Beretz et al. (Experientia, 34,1054,1977). The method consists in measuring (3H) products resulting from incubation of (3H)-c-AMP with the phosphodiesterase preparation and with an excess of […]. An anion exchange resin was used in a batch process to remove the residual substrate. The inibition of PDE by flavonoids was studied in experiments in which the concentration of c-AMP was held constant at 1 μM.
(§2) Assays were performed with 1 μM substrate, I50 was calculated as described above.

phosphodiesterase [2] = assay: Phosphodiesterase inhibition, cyclic GMP substrate; format: biochemical; settings: 1 μM substrate; read-out: I50 Cyclic GMP
Experimental: as §1, §2

phosphodiesterase [3] = settings: stated as known; cited from earlier work

Compound	IC50 (phosphodiesterase [1])	IC50 (phosphodiesterase [2])	inhibition of phosphodiesterase (phosphodiesterase [3])
O=c1cc(-c2ccc(O)c(-c3c(O)cc(O)c4c(=O)cc(-c5ccc(O)cc5)oc34)c2)oc2cc(O)cc(O)c12 [Amentoflavone, amentoflavone]	0.65 µM	0.58 µM	powerful inhibitor of phosphodiesterase
O=C(O)c1cc(=O)c2c(OCC(O)COc3cccc4oc(C(=O)O)cc(=O)c34)cccc2o1 [Cromoglycate Na, reference compound]	2000 µM	235 µM	–
COc1ccc(Cc2nccc3cc(OC)c(OC)cc23)cc1OC [Papaverine, reference compound]	5 µM	12.4 µM	–
ginkgonetine	0.88 µM	0.49 µM	–
